Consider four cell lines from the supplement of paper PMC10307832.

What all share (experiment): relative viability (nuclei count vs DMSO), 5 days (fraction); higher = more cells survive
Compound in test [1]: CCOC1=CC=CC=C1N=NC2=C(NN(C2=O)C3=NC(=CS3)C4=CC=CC=C4)C [BAM7] + COc1cccc2cc(-c3nc([C@H]4CC[C@H](C(=O)O)CC4)n4ncnc(N)c34)[nH]c12 [OSI-027] (partner 0.5 µM)
In short, it runs like this: (§1)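 Five library-drug doses in √10 steps were combined with a fixed anchor-drug dose, or a single drug was given alone, by pin tool to lung cancer cell lines in 1536-well plates the day after seeding. Nuclei were stained and counted after 5 days. Relative viability is the nuclei count in treated wells over that in vehicle wells, taken as the median of duplicate plates.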

Compound in test [2]: CCn1c(-c2nonc2N)nc2c(C#CC(C)(C)O)ncc(OC[C@H]3CCCNC3)c21 + CCNC(=O)c1noc(-c2cc(C(C)C)c(O)cc2O)c1-c1ccc(CN2CCOCC2)cc1 [Luminespib] (partner 0.01 µM)
A digest of the protocol:
as §1

Compound in test [3]: CCn1c(-c2nonc2N)nc2c(C#CC(C)(C)O)ncc(OC[C@H]3CCCNC3)c21 + CS(=O)(=O)CCNCc1ccc(-c2ccc3ncnc(Nc4ccc(OCc5cccc(F)c5)c(Cl)c4)c3c2)o1 [Lapatinib] (partner 2 µM)
In short, it runs like this: as §1

Compound in test [4]: CCn1c(-c2nonc2N)nc2c(C#CC(C)(C)O)ncc(OC[C@H]3CCCNC3)c21 + NC(=O)Nc1cc(-c2cccc(F)c2)sc1C(=O)N[C@H]1CCCNC1 [AZD7762] (partner 0.2 µM)
A digest of the protocol:
as §1

Regarding NCI-H460, the relative viability in test [1] (first compound 0.5 µM) worked out at 0.525; in test [1] (first compound 5 µM), 0.468; in test [1] (first compound 15.81 µM), 0.55; in test [1] (first compound 50 µM), 0.624; in test [2] (first compound 0.01 µM), 0.0307; in test [2] (first compound 0.03162 µM), 0.0313. The relative viability stood at 0.0273 in test [2] (first compound 0.1 µM); 0.031 in test [2] (first compound 0.3162 µM); 0.0375 in test [2] (first compound 1 µM); 0.949 in test [3] (first compound 0.01 µM); 1.14 in test [3] (first compound 0.03162 µM); 1.02 in test [3] (first compound 0.1 µM). In addition, the relative viability in test [3] (first compound 0.3162 µM) was 0.862; in test [3] (first compound 1 µM) it was 0.775; in test [4] (first compound 0.01 µM), 0.633; in test [4] (first compound 0.03162 µM), 0.649; in test [4] (first compound 0.1 µM) it was 0.575; in test [4] (first compound 0.3162 µM) it was 0.636. Moreover, the relative viability in test [4] (first compound 1 µM) was determined as 0.618.
Turning to NCI-H596, the relative viability in test [1] (first compound 0.5 µM) was determined as 0.686; in test [1] (first compound 5 µM), 0.576; in test [1] (first compound 15.81 µM), 0.593; in test [1] (first compound 50 µM), 0.725; in test [2] (first compound 0.01 µM) it was 1.06; in test [2] (first compound 0.03162 µM), 1.13. Besides, the relative viability in test [2] (first compound 0.1 µM) turned out to be 1.17; in test [2] (first compound 0.3162 µM), 0.935; in test [2] (first compound 1 µM), 1.13; in test [3] (first compound 0.01 µM), 0.935; in test [3] (first compound 0.03162 µM), 0.954; in test [3] (first compound 0.1 µM) it was 0.92. The relative viability was found to be 0.901 in test [3] (first compound 0.3162 µM); 0.986 in test [3] (first compound 1 µM); 1.18 in test [4] (first compound 0.01 µM); 1.12 in test [4] (first compound 0.1 µM); 1.21 in test [4] (first compound 0.3162 µM); 1.06 in test [4] (first compound 1 µM).
As to NCI-H647, the relative viability in test [1] (first compound 0.5 µM) stood at 0.613; in test [1] (first compound 5 µM) it was 0.622; in test [1] (first compound 15.81 µM) it was 0.549; in test [1] (first compound 50 µM) it was 0.68; in test [2] (first compound 0.01 µM) it was 0.327; in test [2] (first compound 0.03162 µM), 0.177. Further, the relative viability in test [2] (first compound 0.1 µM) stood at 0.203; in test [2] (first compound 0.3162 µM) it was 0.127; in test [2] (first compound 1 µM), 0.193; in test [3] (first compound 0.01 µM) it was 0.874; in test [3] (first compound 0.03162 µM), 1.23; in test [3] (first compound 0.1 µM), 1.08. The relative viability in test [3] (first compound 0.3162 µM) amounted to 0.788; in test [3] (first compound 1 µM), 0.981; in test [4] (first compound 0.01 µM) it was 0.433; in test [4] (first compound 0.03162 µM), 0.437; in test [4] (first compound 0.1 µM), 0.45; in test [4] (first compound 0.3162 µM) it was 0.423. The relative viability in test [4] (first compound 1 µM) amounted to 0.486.
As to NCI-H650, the relative viability worked out at 0.505 in test [1] (first compound 0.5 µM); 0.591 in test [1] (first compound 5 µM); 0.493 in test [1] (first compound 15.81 µM); 0.589 in test [1] (first compound 50 µM); 0.736 in test [2] (first compound 0.01 µM); 0.835 in test [2] (first compound 0.03162 µM). The relative viability in test [2] (first compound 0.1 µM) was determined as 0.814; in test [2] (first compound 0.3162 µM) it was 0.791; in test [2] (first compound 1 µM), 0.818; in test [3] (first compound 0.01 µM), 0.733; in test [3] (first compound 0.03162 µM) it was 0.838; in test [3] (first compound 0.1 µM), 0.783. For the same cell line, the relative viability in test [3] (first compound 0.3162 µM) was determined as 0.753; in test [3] (first compound 1 µM) it was 0.741; in test [4] (first compound 0.01 µM), 0.948; in test [4] (first compound 0.03162 µM), 1.05; in test [4] (first compound 0.1 µM), 0.998; in test [4] (first compound 0.3162 µM), 0.878. Moreover, the relative viability in test [4] (first compound 1 µM) was 1.08.
